From US20220402935A1, “HETEROCYCLIC COMPOUND” (FIMECS, INC., priority 2019, published 2022)

Columns and labels:
[1] = target: T1, human XIAP_BIR3 domain purified protein (Homo sapiens, UniProt P98170); assay: XIAP binding inhibitory activity (HTRF, b-Smac ligand); settings: for IC50: second symbol of cell, read-out: XIAP binding inhibition IC50 value
T1 construct: purchased R & D
Protocol: Human XIAP binding inhibitory activity was measured by the Homogeneous Time Resolved Fluorescence (HTRF) method with using commercially available human XIAP_BIR3 domain purified protein (R & D) and as a ligand a Smac N-terminal peptide (AVPIAQK (SEQ ID NO: 1)) (hereinafter referred to as “b-Smac”; Peptide Research Laboratories, Inc.) biotinylated at the C-terminus according to a conventional method.
The HTRF method will be described in detail below.
The test compound diluted with a reaction buffer (25 mM HEPES Buffer containing 100 mM NaCl, 0.1% BSA, and 0.1% triton X-100, pH 7.5) was added to a 384-well white shallow bottom plate (Greiner 784076) at 1 μL/well and flash centrifuged for 30 seconds. Subsequently, human XIAP_BIR3 domain purified protein was diluted with the reaction buffer to obtain a 90 nM sample diluent, and the resultant sample diluent was added to the above-mentioned white superficial plate at 4.5 μL/well and flash centrifuged for 30 seconds. Subsequently, b-Smac diluted to 90 nM with the reaction buffer was added to the above-mentioned white superficial plat at 4.5 μL/well and flash centrifuged for 30 seconds. A mixed solution of Anti-6 HIS-Cryptate (Eu^3+ Cryptate-conjugated mouse monoclonal antibody anti-6 Histidine; cisbio) and Streptavidin-XL^eat (Highgrade XL665-conjugated streptavidin; cisbio) both diluted 100-fold with HTRF detection buffer (cisbio) at a volume ratio of 1:1 was added to the above white superficial plate at 10 μL/well. After flash centrifuging the white shallow bottom plate for 30 seconds, the white shallow bottom plate was left at room temperature for 4 hours or more in the dark. The white superficial plate after being left was subjected to fluorescence intensity measurement (excitation wavelength: 320 nm, fluorescence wavelength: 665 nm and 615 nm) by EnVision (Perkin Elmer). The binding inhibition rate (%) was calculated based on the HTRF ratio in the presence of the test compound to the HTRF ratio in the absence of the test compound (fluorescence intensity at 665 nm/fluorescence intensity at 615 nm).
The XIAP binding inhibition rate (%) of test compounds was evaluated.

[2] = target: T2, IRAK-M (Homo sapiens, UniProt Q9Y616); assay: IRAK-M binding inhibitory activity (KINOMEscan active site-dependent competitive assay); parameters: purchased Eurofins Discover X; settings: for IC50: second symbol of cell, read-out: IRAK-M binding inhibition IC50 value; for remaining binding at 1 µM: concentration of the test compound 1 μM, first symbol of cell, read-out: IRAK-M binding inhibition activity % Ctrl
T2 sequence (Q9Y616 1-596): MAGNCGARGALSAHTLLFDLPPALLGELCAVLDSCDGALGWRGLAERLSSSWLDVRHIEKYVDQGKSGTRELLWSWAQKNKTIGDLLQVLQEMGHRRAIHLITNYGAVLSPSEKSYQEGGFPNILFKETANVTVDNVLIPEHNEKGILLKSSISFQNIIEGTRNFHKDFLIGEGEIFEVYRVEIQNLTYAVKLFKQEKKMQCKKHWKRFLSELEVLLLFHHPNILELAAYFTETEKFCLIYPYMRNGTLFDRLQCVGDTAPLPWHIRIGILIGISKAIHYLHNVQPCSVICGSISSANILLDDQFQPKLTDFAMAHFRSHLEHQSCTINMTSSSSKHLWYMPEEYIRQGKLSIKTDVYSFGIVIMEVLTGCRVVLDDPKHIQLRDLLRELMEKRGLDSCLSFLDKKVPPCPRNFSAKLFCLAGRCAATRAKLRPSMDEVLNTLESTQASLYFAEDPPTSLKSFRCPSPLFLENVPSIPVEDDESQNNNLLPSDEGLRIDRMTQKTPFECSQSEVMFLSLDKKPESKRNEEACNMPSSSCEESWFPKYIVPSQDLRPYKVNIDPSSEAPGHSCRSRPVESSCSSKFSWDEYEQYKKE
Procedure, shortened: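 Readout given as % Ctrl, with DMSO as 100% and a control compound as 0%, scaling the test compound signal between them. Binding to human IRAK-M was assessed by KINOMEscan competition at the kinase active site.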

T1 sequence (P98170 252-356 limits assumed): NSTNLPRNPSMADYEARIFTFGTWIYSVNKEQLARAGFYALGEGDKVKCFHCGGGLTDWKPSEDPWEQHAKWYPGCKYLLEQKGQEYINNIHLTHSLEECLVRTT

Structure (SMILES) | IC50 [1] [nM] | IC50 [2] [nM] | inhibition at 3 µM ([1]; concentration of the test compound 3 μM, first symbol of cell, read-out: XIAP binding inhibition rate) [%] | remaining binding at 1 µM [2] [%]
CN[C@@H](C)C(=O)N[C@H](C(=O)N1CCN(C(=O)c2c(C(=O)NCCOCCOCCOc3cc(CN4CCC(Oc5ccnc6cc(C)sc56)CC4)on3)c3cc(F)c(F)cc3n2C)CC1)C1CCCCC1 [Example 8, 2-(4-((S)-2-cyclohexyl-2-((S)-2-(methylamino)propanamido)acetyl)piperazine-1-carbonyl)-5,6-difluoro-1-methyl-N-(2-(2-(2-((5-((4-((2-methylthieno[3,2-b]pyridin-7-yl)oxy)piperidin-1-yl)methyl)isoxazol-3-yl)oxy)ethoxy)ethoxy)ethyl)-1H-indole-3-carboxamide] | 300 to 3000 | 30 to 100 |  | 
CN[C@@H](C)C(=O)N[C@H](C(=O)N1CCN(C(=O)c2cc3cc(F)c(F)cc3n2CC(=O)N2CCC[C@@H]2COc2cc(CN3CCC(Oc4ccnc5ccsc45)CC3)on2)CC1)C1CCCCC1 [Example 31, (S)-N-((S)-1-cyclohexyl-2-(4-(5,6-difluoro-1-(2-oxo-2-((R)-2-(((5-((4-(thieno[3,2-b]pyridin-7-yloxy)piperidin-1-yl)methyl)isoxazol-3-yl)oxy)methyl)pyrrolidin-1-yl)ethyl)-1H-indole-2-carbonyl)piperazin-1-yl)-2-oxoethyl)-2-(methylamino)propanamide] |  |  | 25 to 50 | 25 to 50
CN[C@@H](C)C(=O)N[C@@H](Cn1cccn1)C(=O)N1CCN(C(=O)c2c(C(=O)N(C)CCOCCOCCOc3cc(CN4CCC(Oc5ccnc6ccsc56)CC4)on3)c3cc(F)ccc3n2C)CC1 [Example 15, 5-fluoro-N,1-dimethyl-2-(4-((S)-2-((S)-2-(methylamino)propanamido)-3-(1H-pyrazol-1-yl)propanoyl)piperazine-1-carbonyl)-N-(2-(2-(2-((5-((4-(thieno[3,2-b]pyridin-7-yloxy)piperidin-1-yl)methyl)isoxazol-3-yl)oxy)ethoxy)ethoxy)ethyl)-1H-indole-3-carboxamide] | 300 to 3000 |  |  | 25 to 50
CN[C@@H](C)C(=O)N[C@H](C(=O)N1CCN(C(=O)c2c(C(=O)NCCOCCOCCOc3cc(C(C)N4CCC(Oc5ccnc6cc(C)sc56)CC4)on3)c3cc(F)c(F)cc3n2C)CC1)C1CCCCC1 (stereo partly drawn) [Example 9, 2-(4-((S)-2-cyclohexyl-2-((S)-2-(methylamino)propanamido)acetyl)piperazine-1-carbonyl)-5,6-difluoro-1-methyl-N-(2-(2-(2-((5-(1-(4-((2-methylthieno[3,2-b]pyridin-7-yl)oxy)piperidin-1-yl)ethyl)isoxazol-3-yl)oxy)ethoxy)ethoxy)ethyl)-1H-indole-3-carboxamide] | 300 to 3000 | 30 to 100 |  | 
CN[C@@H](C)C(=O)N[C@H](C(=O)N1CCN(C(=O)c2cc3c(OCCOCCOCCOc4cc(CN5CCC(Oc6ccnc7ccsc67)CC5)on4)c(F)c(F)cc3n2C)CC1)C1CCCCC1 [Example 52, (S)-N-((S)-1-cyclohexyl-2-(4-(5,6-difluoro-1-methyl-4-(2-(2-(2-((5-((4-(thieno[3,2-b]pyridin-7-yloxy)piperidin-1-yl)methyl)isoxazol-3-yl)oxy)ethoxy)ethoxy)ethoxy)-1H-indole-2-carbonyl)piperazin-1-yl)-2-oxoethyl)-2-(methylamino)propanamide] | 300 to 3000 |  |  | < 25
CN[C@@H](C)C(=O)N[C@H](C(=O)N1CCN(C(=O)c2c(C(=O)NCCOCCOc3cc(CN4CCC(Oc5ccnc6ccsc56)CC4)on3)c3cc(F)c(F)cc3n2C)CC1)C1CCCCC1 [Example 4, 2-(4-((S)-2-cyclohexyl-2-((S)-2-(methylamino)propanamido)acetyl)piperazine-1-carbonyl)-5,6-difluoro-1-methyl-N-(2-(2-((5-((4-(thieno[3,2-b]pyridin-7-yloxy)piperidin-1-yl)methyl)isoxazol-3-yl)oxy)ethoxy)ethyl)-1H-indole-3-carboxamide] | 300 to 3000 | 300 to 1000 |  | 
CN[C@@H](C)C(=O)N[C@H](C(=O)N1CCN(C(=O)c2ccc3c(c2)cc(C)n3CCOCCOCCOCCOc2cc(CN3CCC(Oc4ccnc5ccsc45)CC3)on2)CC1)C1CCCCC1 [Example 53, (S)-N-((S)-1-cyclohexyl-2-(4-(2-methyl-1-(2-(2-(2-(2-((5-((4-(thieno[3,2-b]pyridin-7-yloxy)piperidin-1-yl)methyl)isoxazol-3-yl)oxy)ethoxy)ethoxy)ethoxy)ethyl)-1H-indole-5-carbonyl)piperazin-1-yl)-2-oxoethyl)-2-(methylamino)propanamide] | 300 to 3000 |  |  | < 25
CN[C@@H](C)C(=O)N[C@H](C(=O)N1CCN(C(=O)c2c(C(=O)NCCOCCOCCOc3cc(CN4CCC(Oc5ccnc6ccsc56)CC4)on3)c3cc(F)c(OC)cc3n2C)CC1)C1CCCCC1 [Example 13, 2-(4-((S)-2-cyclohexyl-2-((S)-2-(methylamino)propanamido)acetyl)piperazine-1-carbonyl)-5-fluoro-6-methoxy-1-methyl-N-(2-(2-(2-((5-((4-(thieno[3,2-b]pyridin-7-yloxy)piperidin-1-yl)methyl)isoxazol-3-yl)oxy)ethoxy)ethoxy)ethyl)-1H-indole-3-carboxamide] | < 300 |  |  | < 25
CN[C@@H](C)C(=O)N[C@H](C(=O)N1CCN(C(=O)c2c(C(=O)N(C)CCOCCOCCOc3cc(CN4CCC(Oc5ccnc6ccsc56)CC4)on3)c3cc(F)c(F)cc3n2C)C[C@H]1C)C1CCCCC1 [Example 11, 2-((R)-4-((S)-2-cyclohexyl-2-((S)-2-(methylamino)propanamido)acetyl)-3-methylpiperazine-1-carbonyl)-5,6-difluoro-N,1-dimethyl-N-(2-(2-(2-((5-((4-(thieno[3,2-b]pyridin-7-yloxy)piperidin-1-yl)methyl)isoxazol-3-yl)oxy)ethoxy)ethoxy)ethyl)-1H-indole-3-carboxamide] | 3000 to 30000 |  |  | < 25
CN[C@@H](C)C(=O)N[C@H](C(=O)N1CCN(C(=O)c2ccc3c(c2)c(F)c(C)n3CCOCCOCCOc2cc(CN3CCC(Oc4ccnc5ccsc45)CC3)on2)CC1)C1CCCCC1 [Example 57, (S)-N-((S)-1-cyclohexyl-2-(4-(3-fluoro-2-methyl-1-(2-(2-(2-((5-((4-(thieno[3,2-b]pyridin-7-yloxy)piperidin-1-yl)methyl)isoxazol-3-yl)oxy)ethoxy)ethoxy)ethyl)-1H-indole-5-carbonyl)piperazin-1-yl)-2-oxoethyl)-2-(methylamino)propanamide] | 300 to 3000 |  |  | 25 to 50
CN[C@@H](C)C(=O)N[C@H](C(=O)N1CCN(C(=O)c2c(C(=O)NCCOCCOCCOc3ccc(S(=O)(=O)N4CCC(Oc5ncnc6ccsc56)CC4)cc3)c3ccc(OC)cc3n2C)CC1)C1CCCCC1 [Example 2, 2-(4-((S)-2-Cyclohexyl-2-((S)-2-(methylamino)propanamido)acetyl)piperazine-1-carbonyl)-6-methoxy-1-methyl-N-(2-(2-(2-(4-((4-(thieno[3,2-d]pyrimidin-4-yloxy)piperidin-1-yl)sulfonyl)phenoxy)ethoxy)ethoxy)ethyl)-1H-indole-3-carboxamide] | 300 to 3000 | 300 to 1000 |  | 
